The values below come from patent publication US10047036B2, “Method for the synthesis of hydroxy-triglycerides and uses thereof for the prevention and treatment of diseases” (UNIVERSITAT DE LES ILLES BALEARS, priority 2014, dated 2018).

The structures appear in SMILES notation.

One test concerns cholesterol in plasma. Kind of test: plasma cholesterol in SHR rats. The class given is in vivo. The note with it: p.o.; for Chol, levels of total cholesterol in plasma: 6 days, 400 mg/kg. An excerpt:
Metabolic and cardiovascular pathologies are closely related. The overfeeding which characterises our society not only gives rise to problems of obesity and excess weight. It is also linked to the appearance of diabetes, dyslipidaemia, hypertension, strokes, arteriosclerosis, ictus, etc. All of these pathologies increase the risk of premature death and can even cause death. In this sense, certain natural oils show a certain efficacy against this type of pathologies, but their power is limited. In contrast, the molecules of the invention have an important effect against the development of this type of pathologies. To be able to study the effects of the compounds of the invention for the prevention and treatment of metabolic and cardiovascular pathologies, hypertensive rats were used (SHR strain, spontaneously hypertensive rats). These rats present obesity, high blood pressure, dyslipidaemia (hypercholesterolemia and hypertriglyceridemia), diabetes, metabolic syndrome and other related health problems. Also, SHR rats were used to research the efficacy of the hydroxy-triglycerides for the prevention and treatment of dyslipidaemias. On the one hand, treatments with different oral doses and durations gave rise to reductions in the plasma levels of total cholesterol and its fractions in test animals (Tables 5 and 6). These reductions were marked and significant, returning the cholesterol in plasma values to those found in animals without metabolic/cardiovascular disorders. […] [table] [table]

Test [1] deals with T1, Glycogen Branching Enzyme 1 (GBE1) variant Y329S (Homo sapiens, UniProt Q04446, Y329S).
T1 sequence (Q04446 1-702 Y329S): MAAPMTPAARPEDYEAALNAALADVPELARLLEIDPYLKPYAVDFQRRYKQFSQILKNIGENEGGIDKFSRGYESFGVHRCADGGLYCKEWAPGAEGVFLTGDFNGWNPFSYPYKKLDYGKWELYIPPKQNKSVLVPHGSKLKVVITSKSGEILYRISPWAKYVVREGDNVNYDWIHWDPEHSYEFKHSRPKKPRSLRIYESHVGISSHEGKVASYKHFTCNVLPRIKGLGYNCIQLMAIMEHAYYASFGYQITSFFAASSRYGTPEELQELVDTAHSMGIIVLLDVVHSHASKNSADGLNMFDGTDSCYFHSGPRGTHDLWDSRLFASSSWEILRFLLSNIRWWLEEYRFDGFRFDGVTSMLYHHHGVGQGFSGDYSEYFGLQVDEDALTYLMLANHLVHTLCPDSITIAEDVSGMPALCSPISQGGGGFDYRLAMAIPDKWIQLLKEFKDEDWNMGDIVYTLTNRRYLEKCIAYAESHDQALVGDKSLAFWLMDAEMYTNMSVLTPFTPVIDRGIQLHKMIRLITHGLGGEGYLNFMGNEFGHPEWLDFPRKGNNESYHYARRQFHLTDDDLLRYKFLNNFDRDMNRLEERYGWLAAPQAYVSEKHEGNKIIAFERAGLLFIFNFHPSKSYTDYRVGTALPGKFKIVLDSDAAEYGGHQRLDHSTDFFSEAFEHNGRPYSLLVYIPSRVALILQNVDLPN
Kind of test: activity of purified enzyme GBE1 Y329S in the presence of PC membranes. It counts as biochemical. Conditions: PC membranes with TGM 20 mol %; non-mutated enzyme = 100% (0.76 nmol/min · ng protein). From the text:
It has been possible to observe that the molecules of the present invention are capable of regulating the activity of the Glycogen Branching Enzyme 1 (GBE1) and its joining to membranes (Table 9). Alterations in this enzyme give rise to a neurodegenerative process known as APBD (Kakhlon et al., 2013). It has been described that a modification of tyrosine in position 329 of this enzyme (Y329S) causes a reduction in the activity of GBE1. This gives rise to a lower branching of glycogen, which precipitates forming […] which interfere with cell activity (Kakhlon et al., 2013). This gives rise to problems in the function of certain organs, to motor problems and, in some cases, to cognitive decline. We have been able to verify that the hydroxy-triglycerides of the present invention are capable of regulating the joining of native GBE1 (wild type, wt) and with the variant Y329S to membranes and to increase the activity of the form Y329S, which is very low in normal conditions (Table 9). For this reason, the molecules of the present invention are effective for the prevention and treatment of the polyglucosan bodies disease, APBD.

Test [2] has as its system Drosophila melanogaster flies with human Alzheimer's genes (F1). Kind of test: survival of Drosophila melanogaster with Alzheimer's disease. The class given is in vivo. Conditions: 100 μM in the food. An excerpt: To investigate the effect of TGMs on the cognitive parameters and aging, another model of Alzheimer's disease in Drosophila melanogaster flies with genetic alterations corresponding to human Alzheimer's was used. The flies used were the first generation (F1) from the crossing of UAS-Aβ human-Tau 2N4R (stock 33771) flies with elav-GAL4^c155 (stock 8760) flies. This model which over-expresses the two proteins typical of Alzheimer's disease is complementary to the model described above and very convenient, as these animals have a life of approximately 1 month and it is possible to add the compounds to the food of the larvae to see the preventative effect thereof throughout their entire life. Also, it allows the effect on aging to be seen and on the life expectancy of these animals (survival over time).
In this sense, the flies with human Alzheimer's (F1) present a greater cognitive decline in comparison to the “Oregon” fly strain, which are the healthy controls. To evaluate the effect of the hydroxy-triglycerides of the invention, each one of the TGMs (100 μM) was added to the food consumed by these animals. It was possible to observe a positive effect of same in the geotaxis test of climbing (FIG. 7B and Table 11). In this test, the behavioural motor activity was investigated in 25 flies treated with vehicle or one of the TGMs. In this study, the flies were introduced in a glass cylinder with an opening closed with a sponge so air could enter. The flies were taken to the ground (bottom) of the pipe by giving it a sharp blow on a table and their behaviour was timed during 20 seconds. Once this time was over, the number of flies which had passed (crossed) a mark at 15 cm from the bottom was counted (geotaxis test). Usually, more than 90% of healthy young flies passed the line within 20 seconds. However, with aging or with Alzheimer's disease, the behavioural motor activity (percentage of flies which crossed the line) declined, compared to normal flies. In this context, the treatments with the hydroxy-triglycerides of the present invention avoided this cognitive decline associated to Alzheimer's, making the cognitive capacity of the diseased flies similar to that of the healthy flies. […] This positive effect on the cognitive parameters in flies was also shown by other TGMs (Table 11). In fact, in the control group with Alzheimer, no fly crossed the line as of 23 days of age. In this sense, the different hydroxy-triglycerides induced marked increases in the geotaxis test values, with increases in the cognitive values which reached up to 36 days, 50% more in the life of the flies with Alzheimer's (Table 11).

On to `CCC=CCC=CCC=CCC=CCC=CCCC(O)C(=O)OCC(COC(=O)C(O)CCC=CCC=CCC=CCC=CCC=CCC)OC(=O)C(O)CCC=CCC=CCC=CCC=CCC=CCC` (stereo not drawn) [TGM5, 1,2,3-tri(2′-hydroxy-eicosa-5′,8′,11′,14′,17′-pentaenoyl)glycerol], for which the “Chol, levels of total cholesterol in plasma” value (“Chol, levels” below) in the test with cholesterol in plasma was determined as 58.4 ± 3 mg/dL. Also, the “Activity Y329S” value in test [1] was determined as 16 ± 3%. Further, the “Survival: age at which all the animals in the group died” value (from here on “Survival: age at which all the animals”) in test [2] turned out to be 31 days.
The corresponding values for `CCCCCC(O)C(=O)OCC(COC(=O)C(O)CCCCC)OC(=O)C(O)CCCCC` (stereo not drawn) [TGM0, 1,2,3-tri(2′-hydroxyheptanoyl)glycerol] are 62.2 ± 3 mg/dL, 20 ± 2% and 30 days.
The corresponding values for `CCC=CCC=CCC=CCCCCCCC(O)C(=O)OCC(COC(=O)C(O)CCCCCCC=CCC=CCC=CCC)OC(=O)C(O)CCCCCCC=CCC=CCC=CCC` (stereo not drawn) [TGM3A, 1,2,3-tri(2′-hydroxy-octadec-9′,12′,15′-trienoyl)glycerol] are 49.8 ± 2 mg/dL, 10 ± 2% and 40 days.
With `CCCCCCCCC=CCCCCCCC(O)C(=O)OCC(COC(=O)C(O)CCCCCCC=CCCCCCCCC)OC(=O)C(O)CCCCCCC=CCCCCCCCC` (stereo not drawn) [TGM1, 1,2,3-tri(2′-hydroxy-octadec-9′-enoyl)glycerol], the “Chol, levels” value in the test with cholesterol in plasma is 55.5 ± 2 mg/dL. Moreover, in the test on cholesterol in plasma (14 days, 600 mg/kg, 12 h), the HDL in plasma was 33.44 ± 2.251 mmHgmg/dl, the LDL in plasma was determined as 3.644 ± 0.3244 mmHgmg/dl and the “Total cholesterol in plasma” value is 49.11 ± 3.084 mmHgmg/dl. Moreover, the “Activity Y329S” value in test [1] is reported as 7 ± 1%. Besides, the “Survival: age at which all the animals” value in test [2] amounted to 45 days.
Regarding `CCC=CCC=CCC=CCC=CCC=CCC=CCC(O)C(=O)OCC(COC(=O)C(O)CC=CCC=CCC=CCC=CCC=CCC=CCC)OC(=O)C(O)CC=CCC=CCC=CCC=CCC=CCC=CCC` (stereo not drawn) [TGM6, 1,2,3-tri(2′-hydroxy-docosa-4′,7′,10′,13′,16′,19′-hexanoyl)glycerol], the “Chol, levels” value with cholesterol in plasma was 48.9 ± 3 mg/dL. Moreover, the “Activity Y329S” value in test [1] is recorded as 5 ± 1%. Further, the “Survival: age at which all the animals” value in test [2] is 39 days.
The corresponding values for `CCCCCC=CCC=CCC=CCCCC(O)C(=O)OCC(COC(=O)C(O)CCCC=CCC=CCC=CCCCCC)OC(=O)C(O)CCCC=CCC=CCC=CCCCCC` (stereo not drawn) [TGM3G, 1,2,3-tri(2′-hydroxy-octadec-6′,9′,12′-trienoyl)glycerol] are 65.1 ± 4 mg/dL, 9 ± 4% and 31 days.
The corresponding values for `CCCCCC=CCC=CCCCCCCC(O)C(=O)OCC(COC(=O)C(O)CCCCCCC=CCC=CCCCCC)OC(=O)C(O)CCCCCCC=CCC=CCCCCC` (stereo not drawn) [TGM2, 1,2,3-tri(2′-hydroxy-octadec-9′,12′-dienoyl)glycerol] are 51.7 ± 2 mg/dL, 11 ± 2% and 33 days.
The corresponding values for `CCCCCC=CCC=CCC=CCC=CCCC(O)C(=O)OCC(COC(=O)C(O)CCC=CCC=CCC=CCC=CCCCCC)OC(=O)C(O)CCC=CCC=CCC=CCC=CCCCCC` (stereo not drawn) [TGM4, 1,2,3-tri(2′-hydroxy-eicosa-5′,8′,11′,14′-tetraenoyl)glycerol] are 72.7 ± 2 mg/dL, 4 ± 1% and 44 days.
